This note sets out measurements from ChEMBL document CHEMBL1201862, “PubChem BioAssay data set” (2004).

Among the test systems are 786-0; CAKI-1; HCC 2998; MCF7; MDA-MB-231; MDA-N; NCI-H460; NCI/ADR-RES; OVCAR-3; PC-3; RPMI-8226; SF-295; SK-MEL-2; SK-MEL-5; SN12C; SR; SW-620; UACC-62; SK-OV-3; MOLT-4.
Common to all, as to assay: growth of human tumour cells (NCI), 48 h

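Cells were grown in 96-well plates and exposed to each compound for 48 hours at five concentrations; endpoints were interpolated linearly between bracketing concentrations, or set to the highest concentration if not reached. The concentration for 50% growth inhibition is given as GI50.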 Calls of active or inactive are those of the source. Cut-off read from the data, not from the text of the source: active = GI50 up to about 1.1 µM and inactive = higher. Some results are limits rather than exact numbers.

Turning to `COc1cc(NCc2ccc3n2-c2ccccc2OC3)cc(OC)c1OC`, the GI50 is 47.1 µM (inactive) in the assay with 786-0; 27 µM (inactive) in the assay with CAKI-1; 16.1 µM (inactive) in the assay on HCC 2998; 14.1 µM (inactive) in the assay on MCF7; 14.4 µM (inactive) in the assay on MDA-MB-231; 21.1 µM (inactive) with MDA-N. The GI50 is 30.1 µM (inactive) in the assay on NCI-H460; 4.25 µM (inactive) in the assay with NCI/ADR-RES; 28.6 µM (inactive) with OVCAR-3; 22.8 µM (inactive) in the assay on PC-3; 7.89 µM (inactive) in the assay on RPMI-8226; 23.8 µM (inactive) in the assay on SF-295. In addition, the GI50 was 20 µM (inactive) with SK-MEL-2; 15.6 µM (inactive) in the assay on SK-MEL-5; 17.5 µM (inactive) with SN12C; 11.8 µM (inactive) in the assay with SR; 35.6 µM (inactive) in the assay with SW-620; 19 µM (inactive) in the assay on UACC-62.
Turning to `CSc1ncnc2c1cnn2Cc1cn(COCCO)nn1`, the GI50 with 786-0 was 18.7 µM (inactive); in the assay on HCC 2998 it was 32.2 µM (inactive); with MCF7 it was 43.3 µM (inactive); with MDA-MB-231, > 100 µM (inactive); in the assay on MDA-N it was 18.5 µM (inactive); in the assay with NCI-H460, 32 µM (inactive). The GI50 in the assay with NCI/ADR-RES is > 100 µM (inactive); with OVCAR-3 it was 18.3 µM (inactive); in the assay with PC-3 it was 36 µM (inactive); in the assay on RPMI-8226 it was 34.3 µM (inactive); with SK-MEL-2, 39 µM (inactive); in the assay with SK-MEL-5 it was 46.8 µM (inactive). Further, the GI50 with SK-OV-3 is 47.6 µM (inactive); in the assay on SN12C it was 64.6 µM (inactive); in the assay on SR, 12.5 µM (inactive); with SW-620, 44.3 µM (inactive); in the assay with UACC-62, 84.3 µM (inactive).
Consider `CCOC(=O)c1sc(N/N=C2\NC(=O)/C(=C/c3ccc([N+](=O)[O-])cc3)S2)nc1C`, for which the GI50 is 16.7 µM (inactive) in the assay with 786-0; 22.1 µM (inactive) in the assay with CAKI-1; 27.4 µM (inactive) with HCC 2998; 22.3 µM (inactive) in the assay on MCF7; 19.5 µM (inactive) with MDA-MB-231; 25.9 µM (inactive) in the assay on MDA-N. For the same molecule, the GI50 in the assay with MOLT-4 was 10.3 µM (inactive); with NCI-H460, 21.5 µM (inactive); with NCI/ADR-RES it was 23.9 µM (inactive); in the assay with OVCAR-3, 14.5 µM (inactive); in the assay on PC-3 it was 25.6 µM (inactive); with SF-295, 20.4 µM (inactive). The GI50 is 24.8 µM (inactive) in the assay with SK-MEL-2; 16.8 µM (inactive) in the assay on SK-MEL-5; 31.4 µM (inactive) in the assay with SK-OV-3; 30.4 µM (inactive) in the assay with SN12C; 6.65 µM (inactive) with SR; 31.8 µM (inactive) with SW-620. The GI50 in the assay on UACC-62 is 22.2 µM (inactive).
Consider `Cc1nc2c(nc1C)-c1c(c3c(n1C)C(=O)CCC3)C(=O)C2=O`, for which the GI50 is 1.39 µM (inactive) in the assay on 786-0; 1.61 µM (inactive) with HCC 2998; 0.163 µM (active) with MCF7; 0.264 µM (active) with MDA-MB-231; 0.162 µM (active) in the assay with MDA-N; 0.312 µM (active) with MOLT-4. Further, the GI50 with NCI-H460 is 1.23 µM (inactive); with NCI/ADR-RES, 0.547 µM (active); in the assay on OVCAR-3 it was 0.156 µM (active); in the assay on PC-3, 1.17 µM (inactive); with RPMI-8226, 0.194 µM (active); with SF-295, 1.75 µM (inactive). The GI50 is 0.571 µM (active) in the assay on SK-MEL-2; 0.406 µM (active) in the assay with SK-MEL-5; 1.27 µM (inactive) in the assay with SK-OV-3; 0.216 µM (active) in the assay on SN12C; 0.175 µM (active) in the assay with SR; 0.214 µM (active) in the assay on SW-620. Also, the GI50 in the assay on UACC-62 was 0.406 µM (active).
With `Cc1nc2ccc(C(F)(F)F)cc2nc1NCc1ccc(Cl)c(Cl)c1`, the GI50 in the assay on 786-0 was 16.6 µM (inactive); in the assay with CAKI-1 it was 18.8 µM (inactive); in the assay with HCC 2998, 10.5 µM (inactive); in the assay on MCF7, 10 µM (inactive); in the assay on MDA-MB-231, 15.8 µM (inactive); with MDA-N, 17.3 µM (inactive). For the same molecule, the GI50 with MOLT-4 is 15.6 µM (inactive); in the assay with NCI-H460 it was 32.3 µM (inactive); in the assay on NCI/ADR-RES, 19.9 µM (inactive); in the assay on OVCAR-3, 13.3 µM (inactive); in the assay with PC-3, 12.9 µM (inactive); in the assay with RPMI-8226, 17.1 µM (inactive). Also, the GI50 with SF-295 was 17.3 µM (inactive); with SK-MEL-5, 19.6 µM (inactive); in the assay on SN12C, 17.2 µM (inactive); in the assay with SR it was 14.8 µM (inactive); in the assay on SW-620, 18.9 µM (inactive); with UACC-62, 3.28 µM (inactive).
In the case of `CC(NC(=N)N)C(=O)O` (stereo not drawn), the GI50 with 786-0, with CAKI-1, in the assay on HCC 2998, with MCF7, in the assay on MDA-MB-231 and in the assay with MDA-N was > 100 µM (inactive) each time. Further, the GI50 with MOLT-4, with NCI/ADR-RES, in the assay on OVCAR-3, in the assay on PC-3, with RPMI-8226 and in the assay with SF-295 was > 100 µM (inactive) each time. Besides, the GI50 with SK-MEL-2, in the assay on SK-MEL-5, with SK-OV-3, with SN12C, with SR and with SW-620 was > 100 µM (inactive) each time. Further, the GI50 in the assay on UACC-62 is > 100 µM (inactive).
For the molecule `CCCNCC(O)CNc1ccc(NCC(O)CNCCC)c2c1C(=O)c1ccccc1C2=O` (stereo not drawn), the GI50 is 2.03 µM (inactive) with 786-0; 12.6 µM (inactive) in the assay on CAKI-1; 1.38 µM (inactive) in the assay with HCC 2998; 2.54 µM (inactive) in the assay with MCF7; 2.98 µM (inactive) with MDA-MB-231; 2.74 µM (inactive) with MDA-N. Also, the GI50 was 1.26 µM (inactive) in the assay on MOLT-4; 2.42 µM (inactive) in the assay on NCI-H460; > 75 µM (inactive) with NCI/ADR-RES; 4.37 µM (inactive) in the assay on OVCAR-3; 1.95 µM (inactive) in the assay on PC-3; 1.69 µM (inactive) with RPMI-8226. The GI50 in the assay on SK-MEL-2 is 2.16 µM (inactive); with SK-MEL-5, 2.69 µM (inactive); in the assay on SK-OV-3, 2.04 µM (inactive); with SN12C, 1.78 µM (inactive); in the assay with SR, 2.42 µM (inactive); with SW-620 it was 2.05 µM (inactive). Moreover, in the assay on UACC-62, the GI50 is 1.9 µM (inactive).
In the case of `CCn1c(=O)c2c3ccc(O)cc3oc2c2ccc(O)cc21`, the GI50 in the assay with 786-0 is 63.4 µM (inactive); in the assay on CAKI-1 it was 39.4 µM (inactive); in the assay on HCC 2998, 47 µM (inactive); in the assay on MCF7, 39.2 µM (inactive); in the assay with MDA-MB-231, 30.2 µM (inactive); in the assay on MDA-N it was 37.5 µM (inactive). Also, the GI50 with MOLT-4 was 25.5 µM (inactive); in the assay on NCI-H460, 34.6 µM (inactive); in the assay with NCI/ADR-RES, 53.3 µM (inactive); with OVCAR-3, 42.7 µM (inactive); in the assay with PC-3 it was 42.6 µM (inactive); in the assay on SF-295, 52.4 µM (inactive). The GI50 in the assay with SK-MEL-5 was 22.5 µM (inactive); with SK-OV-3 it was 38.5 µM (inactive); with SN12C, 41.5 µM (inactive); in the assay on SR, 27.6 µM (inactive); in the assay on SW-620, 41 µM (inactive); with UACC-62, 31.1 µM (inactive).
For `CCn1c(-c2ccc(OC)cc2)nc2c1C(=O)c1ccccc1C2=O`, the GI50 in the assay with 786-0, in the assay on HCC 2998, in the assay on MCF7, with MDA-MB-231, in the assay with MDA-N and in the assay with MOLT-4 was > 100 µM (inactive) each time. The GI50 in the assay on NCI-H460, in the assay with NCI/ADR-RES, in the assay on OVCAR-3, in the assay with PC-3, in the assay with RPMI-8226 and with SF-295 was > 100 µM (inactive) throughout. Also, the GI50 in the assay on SK-MEL-5, in the assay on SK-OV-3, in the assay with SN12C, in the assay on SR, in the assay on SW-620 and with UACC-62 was > 100 µM (inactive) throughout.
On to `O=C1/C(=N/c2ccccc2)Oc2cc(O)ccc21`, for which the GI50 was > 100 µM (inactive) in the assay with 786-0; > 100 µM (inactive) with CAKI-1; > 100 µM (inactive) with HCC 2998; 56.4 µM (inactive) in the assay with MCF7; > 100 µM (inactive) with MDA-MB-231; > 100 µM (inactive) in the assay on MDA-N. Also, the GI50 with MOLT-4, in the assay with NCI-H460, in the assay on NCI/ADR-RES, in the assay on OVCAR-3, in the assay with PC-3 and in the assay on SF-295 was > 100 µM (inactive) each time. Also, the GI50 in the assay with SK-MEL-2, in the assay on SK-MEL-5, with SK-OV-3, in the assay on SN12C, in the assay with SR and with SW-620 was > 100 µM (inactive) throughout. The GI50 in the assay on UACC-62 is > 100 µM (inactive).
With `N#CC1=C(N)N(c2ccccc2)C(c2ccccc2)C1(C#N)C#N` (stereo not drawn), the GI50 in the assay on 786-0 is 17.5 µM (inactive); in the assay on CAKI-1, 20.9 µM (inactive); with HCC 2998, 16.4 µM (inactive); in the assay with MCF7, 14.8 µM (inactive); with MDA-MB-231, 14.3 µM (inactive); in the assay with MDA-N, 19.3 µM (inactive). Besides, the GI50 in the assay with MOLT-4 was 12.3 µM (inactive); in the assay with NCI/ADR-RES, 20.3 µM (inactive); with OVCAR-3, 17.8 µM (inactive); in the assay on PC-3 it was 17.7 µM (inactive); in the assay on RPMI-8226, 14.8 µM (inactive); with SF-295, 18.4 µM (inactive). Also, the GI50 is 16.4 µM (inactive) in the assay on SK-MEL-2; 13.5 µM (inactive) in the assay on SK-MEL-5; 24.9 µM (inactive) in the assay on SK-OV-3; 18.8 µM (inactive) in the assay with SN12C; 17.1 µM (inactive) with SR; 19.1 µM (inactive) in the assay with SW-620. Moreover, in the assay with UACC-62, the GI50 is 18.2 µM (inactive).
